According to ChEMBL document CHEMBL5674860, “Optimized Dual-Glo Assay to identify co-culture-induced drug vulnerabilities in 3D CRC models” (2024):

What was measured:
Type in all cases: functional, Homo sapiens
Set-up in all cases: dose or concentration left out as unconfirmed
Colon cancer organoid [1] = assay: Optimized Dual-Glo assay to identify co-culture induced drug vulnerabilities using donated chemical probes and chemogenomics kinase set in O14 CRC organoid and F14 CAF mono and co-culture. […] Cell viability is reported both mono and co-culture models.
Colon cancer organoid [2] = assay: Optimized Dual-Glo assay to identify co-culture induced drug vulnerabilities using donated chemical probes and chemogenomics kinase set in O06 CRC organoid and F06 CAF mono and co-culture. […] Cell viability is reported both mono and co-culture models.
Colon cancer organoid [3] = assay: Optimized Dual-Glo assay to identify co-culture induced drug vulnerabilities using donated chemical probes and chemogenomics kinase set in O20 CRC organoid and F20 CAF mono and co-culture. […] Cell viability is reported both mono and co-culture models.
[4] = Culture type Co-Culture, Transduced with Lucferase2-P2A-EGFP lentivirus
[5] = Culture type Co-Culture, Transduced with Renilla-dsRed lentivirus
[6] = Culture type Mono-Culture, Transduced with Lucferase2-P2A-EGFP lentivirus
[7] = Culture type Mono-Culture, Transduced with Renilla-dsRed lentivirus

Structure (SMILES) | Cell Viability (Colon cancer organoid [1]; [4]) | Cell Viability (Colon cancer organoid [1]; [5]) | Cell Viability (Colon cancer organoid [1]; [6]) | Cell Viability (Colon cancer organoid [1]; [7]) | Cell Viability (Colon cancer organoid [2]; [4]) | Cell Viability (Colon cancer organoid [2]; [5]) | Cell Viability (Colon cancer organoid [2]; [6]) | Cell Viability (Colon cancer organoid [2]; [7]) | Cell Viability (Colon cancer organoid [3]; [4]) | Cell Viability (Colon cancer organoid [3]; [5]) | Cell Viability (Colon cancer organoid [3]; [6]) | Cell Viability (Colon cancer organoid [3]; [7])
Cl.Cl.NC1(c2ccc(-c3nc4ccn5c(=O)[nH]nc5c4cc3-c3ccccc3)cc2)CCC1 | 42.2425% | 103.472% | 90.3868% | 88.3443% | 52.26% | 91.614% | 79.8603% | 69.8373% | 44.0229% | 145.22% | 34.39% | 114.515%
C=CC(=O)Nc1ccc2[nH]c(=O)n(C3CCN(C(=O)c4ccc(-c5nc6cc[nH]c(=O)c6cc5-c5ccccc5)cc4)CC3)c2c1 | 111.176% | 112.94% | 102.423% | 83.7994% | 100.634% | 129.997% | 117.336% | 96.7859% | 101.159% | 80.5582% | 103.07% | 78.5683%
CN1CCN(C(=O)C(C)(C)c2ccc(C(=O)Nc3cn4cc(-c5ccncc5)ccc4n3)cc2)CC1 [T3-CLK] | 26.2693% | 164.302% | 35.9707% | 93.5791% | 42.8408% | 189.116% | 24.3767% | 109.981% | 17.3495% | 291.942% | 28.5908% | 98.0167%
CN(C(=O)c1ccccc1)c1cc(N(C)c2ccc3c(c2)CCc2ccc(C(=O)NCCN4CCOCC4)cc2C3=O)ccc1F [FM-743] | 83.789% | 122.182% | 115.906% | 98.7995% | 67.0526% | 69.6878% | 72.1659% | 109.641% | 87.5807% | 153.202% | 104.972% | 128.329%
Cc1ccc2[nH]c(CNCCCc3ccncc3)cc(=O)c2c1 [UCSF924NC] | 108.907% | 109.825% | 95.9143% | 99.591% | 92.2965% | 82.507% | 94.1046% | 89.0396% | 121.67% | 109.302% | 107.027% | 101.655%
C[C@@H](c1cccc(CN)c1)n1cc(Cl)cc(C(N)=O)c1=N.Cl | 79.0577% | 134.768% | 97.3624% | 96.7861% | 104.535% | 114.984% | 142.418% | 104.758% | 85.1583% | 93.567% | 85.5992% | 85.7646%
CN([C@@H]1CCc2c(CC(=O)O)c3ccccc3n2C1)S(=O)(=O)c1ccc(F)cc1 [MK-7246] | 76.0592% | 112.144% | 82.2127% | 107.31% | 127.259% | 149.477% | 87.9847% | 110.238% | 94.6909% | 109.932% | 110.185% | 99.3239%
CCOc1cc2ncc(C#N)c(Nc3ccc(OCc4cccc(F)c4)c(Cl)c3)c2cc1NC(=O)/C=C/CN(C)C [HKI-357] | 25.3344% | 46.9424% | 1.402% | 33.5455% | 16.8896% | 39.6819% | 6.232% | 45.0211% | 50.2885% | 47.1207% | 7.299% | 36.419%
CC(C)S(=O)(=O)c1ccc2nccc(Nc3ccc4scnc4c3)c2c1 | 101.708% | 94.4181% | 92.6068% | 100.536% | 84.0973% | 95.5761% | 123.937% | 111.512% | 145.741% | 98.2209% | 115.329% | 92.1603%
Cc1cc(=O)n(C)c2cc(N3C(=O)CC[C@H](NS(=O)(=O)CC(C)C)[C@H]3c3ccc(Cl)cc3)ccc12 | 75.0892% | 148.008% | 105.721% | 116.483% | 117.914% | 167.751% | 110.238% | 116.926% | 107.11% | 166.434% | 116.867% | 106.138%
COc1ccccc1S(=O)(=O)Nc1ccc2c(c1)CN(C)C(=O)N2 | 98.1337% | 101.069% | 91.805% | 99.3977% | 75.1061% | 112.248% | 98.6756% | 116.533% | 111.384% | 99.8859% | 75.6376% | 98.229%
CN(C)C(=O)Cn1cc(-c2ccc(-c3nnc4ccccn34)cc2)cn1 | 93.0602% | 86.1026% | 137.129% | 87.3202% | 105.212% | 110.192% | 69.5948% | 88.4504% | 165.558% | 52.6743% | 140.63% | 85.2439%
CO[C@@H](C)c1c(Nc2ccc([C@H](N(C)C(=O)C3CCS(=O)(=O)CC3)C(F)(F)F)cc2)cnc2cc(Cl)nn12 [NVS-MALT1] | 62.6088% | 105.477% | 102.315% | 101.932% | 54.3511% | 83.5282% | 80.0936% | 98.6896% | 87.8486% | 98.697% | 70.7423% | 82.2292%
CCOc1ccc(S(=O)(=O)Nc2ccc(Cl)cc2C#Cc2cnc(C(=O)[O-])cc2OC)c2ncccc12.[K+] | 128.517% | 94.7736% | 96.9622% | 95.2003% | 117.764% | 113.31% | 103.254% | 83.0425% | 109.87% | 117.362% | 101.299% | 92.0089%
Cc1ccc(C(=O)Nc2cccc(C(F)(F)F)c2)cc1Nc1nc(-c2cccnc2)nc2c1cnn2C | 103.322% | 86.6207% | 91.8457% | 71.8424% | 60.2736% | 70.9034% | 100.972% | 83.1262% | 141.672% | 123.917% | 68.1835% | 97.2478%
Cc1ccc(-c2cnc([C@@]3(O)CC[C@H](C(=O)O)C(C)(C)C3)s2)cc1Nc1cccc(C(F)(F)F)n1 [MRL-SYKi-NC] | 89.1631% | 98.4974% | 85.8631% | 77.2403% | 103.411% | 158.333% | 78.37% | 87.8946% | 106.503% | 131.597% | 144.144% | 94.9642%
CN(C)CCCOc1ccc(-c2cc(NCCCn3cccn3)nc(S(C)(=O)=O)n2)cc1 | 98.5657% | 111.103% | 109.089% | 94.6282% | 126.468% | 129.443% | 108.628% | 116.281% | 144.301% | 126.832% | 110.606% | 92.2355%
CN(C)C(=O)c1ccc(-c2cc(C(=O)N(C)C3CCCC3)no2)cc1O | 78.738% | 108.435% | 99.3256% | 115.997% | 126.057% | 129.278% | 114.98% | 129.58% | 121.535% | 110.433% | 107.717% | 123.756%
